In brackets after ≈: the same amount, converted by molar mass.
Legend:
[1] = tested on: Mycobacterium tuberculosis H37Rv (ATCC 25177); test: Anti-tubercular activity, colorimetric Resazurin Microplate Assay (REMA), susceptible strain; type: cell-based; conditions: 192 h, Middlebrook 7H9 broth, 37° C., 8 days of incubation then resazurin overnight, read-out: MIC (μg/mL) Susceptible (H37Rv)

Row | Structure (SMILES) | melting point [°C] | MIC [1] [µg/mL]
1 | CCOC(=O)c1cc(C(=O)c2ccc(F)cc2)n2c1ccc1cc(C)ccc12 | 163 to 164 | 
2 | CCOC(=O)c1cc(C(=O)c2cc(C(F)(F)F)cc(C(F)(F)F)c2)n2c1ccc1cc(C)ccc12 [Compound 4f, Ethyl 1-(3,5-bis(trifluoromethyl)benzoyl)-7-methylpyrrolo[1,2-a]quinoline-3-carboxylate] | 223 to 224 | 16 (≈ 32.4 µM)
3 | CCOC(=O)c1cc(C(=O)c2ccc(C)cc2)n2c1ccc1cc(C)ccc12 | 155 to 156 | 
4 | CCOC(=O)c1cc(C(=O)c2ccc(Br)cc2)n2c1ccc1cc(C)ccc12 [Compound 4e, Ethyl 1-(4-bromobenzoyl)-7-methylpyrrolo[1,2-a]quinoline-3-carboxylate] | 180 to 181 | 32 (≈ 73.3 µM)
5 | CCOC(=O)c1cc(C(=O)c2ccccc2[N+](=O)[O-])n2c1ccc1cc(C)ccc12 [Compound 4d, Ethyl 7-methyl-1-(2-nitrobenzoyl)pyrrolo[1,2-a]quinoline-3-carboxylate] | 174 to 175 | 8 (≈ 19.9 µM)
6 | CCOC(=O)c1cc(C(=O)c2ccccc2)n2c1ccc1cc(C)ccc12 | 139 to 140 | 

— patent publication US11938120B1 (priority 2023, dated 2024)
